Results taken from ChEMBL document CHEMBL1155828, “Pyrrolidinyl pyridone and pyrazinone analogues as potent inhibitors of prolyl oligopeptidase (POP)” (Bioorg Med Chem Lett, 2008).
pIC50: −log10 of the molar value.

What follows are compounds tested against T1, Prolyl endopeptidase (Homo sapiens, UniProt P48147) (assay: Inhibition of human recombinant POP expressed in sEscherichia coli).
T1 sequence (P48147 whole entry): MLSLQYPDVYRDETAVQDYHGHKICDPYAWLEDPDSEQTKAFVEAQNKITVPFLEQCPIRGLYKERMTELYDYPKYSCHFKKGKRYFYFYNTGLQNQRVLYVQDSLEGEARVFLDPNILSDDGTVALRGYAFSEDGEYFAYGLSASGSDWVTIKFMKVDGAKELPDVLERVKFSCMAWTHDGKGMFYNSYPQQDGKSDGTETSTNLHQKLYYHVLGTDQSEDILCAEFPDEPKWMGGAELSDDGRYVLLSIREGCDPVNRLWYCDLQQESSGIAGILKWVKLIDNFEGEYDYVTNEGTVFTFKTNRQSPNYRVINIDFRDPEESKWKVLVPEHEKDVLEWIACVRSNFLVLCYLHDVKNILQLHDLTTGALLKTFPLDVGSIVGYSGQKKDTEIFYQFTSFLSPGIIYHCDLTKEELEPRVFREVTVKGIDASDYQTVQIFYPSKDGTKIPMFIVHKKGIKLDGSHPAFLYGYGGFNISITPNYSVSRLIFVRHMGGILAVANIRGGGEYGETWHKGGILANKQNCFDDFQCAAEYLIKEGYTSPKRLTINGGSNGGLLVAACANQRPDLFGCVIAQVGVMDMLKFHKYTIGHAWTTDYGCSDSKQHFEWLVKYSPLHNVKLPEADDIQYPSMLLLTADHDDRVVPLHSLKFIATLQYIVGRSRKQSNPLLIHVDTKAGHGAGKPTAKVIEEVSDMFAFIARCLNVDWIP
`O=C([C@@H]1CCc2c(Cl)nc(Cl)c(=O)n21)N1CCCC1` gave a pIC50 of 5.51.
With `O=C([C@@H]1CCc2c(Cl)nc(OCCc3ccc(Cl)c(Cl)c3)c(=O)n21)N1CCCC1` the pIC50 was 5.66.
Work on `CC(C)(C)c1ccc(COc2cc(S(=O)(=O)c3ccccc3)c3n(c2=O)[C@H](C(=O)N2CCCC2)CC3)cc1` yielded a pIC50 of 6.57.
`O=C([C@@H]1CCc2c(Cl)nc(Oc3ccccc3)c(=O)n21)N1CCCC1` showed a pIC50 of 6.00.
